Experimental data as given in ChEMBL document CHEMBL5550154, “Novel biaryloxazolidinone derivatives with broad-spectrum antibacterial activity, favorable drug-like profiles and in vivo efficacy against linezolid-resistant Staphylococcusaureus” (Eur J Med Chem, 2024).
≈ marks a conversion by molar mass, not a printed value. Calls of active or inactive are those of the source. No cut-off for these calls is given here.

Key:
[1] = Apparent volume of distribution in Sprague-Dawley rat at 1 mg/kg, iv measured upto 24 hrs by LC-MS analysis; assay type: ADME, organism-based; details: in vivo, read-out: Vz
[2] = Plasma protein binding in monkey incubated for 6 hrs by LC-MS/MS analysis; assay type: ADME, cell-free, Macaca mulatta; details: rhesus monkey, read-out: PPB (converted)
[3] = Microsomal stability in rat liver microsomes assessed as elimination half life pretreated with compound upto 60 mins followed by NADPH addition and measured after 60 mins by LC/MS analysis; assay type: ADME, Microsome; details: for half-life: liver microsomes, read-out: beta t1/2
[4] = Plasma protein binding in human incubated for 6 hrs by LC-MS/MS analysis; assay type: ADME, cell-free; details: read-out: PPB (converted)
[5] = Stability in dog plasma assessed as parent compound remaining at 25 degreeC measured upto 60 mins by HPLC analysis; assay type: ADME, cell-free, Canis lupus familiaris; details: read-out: Stability
Cytochrome P450 2C19 = Cytochrome P450 2C19 (Homo sapiens, UniProt P33261); experiment: Inhibition of CYP2C19 in human liver microsomes […] preincubated with compound for 5 mins followed by substrate addition and measured after 120 mins in presence of NADPH by LC-MS/MS analysis; assay type: ADME, Microsome
Cytochrome P450 2C19, sequence (P33261 whole entry): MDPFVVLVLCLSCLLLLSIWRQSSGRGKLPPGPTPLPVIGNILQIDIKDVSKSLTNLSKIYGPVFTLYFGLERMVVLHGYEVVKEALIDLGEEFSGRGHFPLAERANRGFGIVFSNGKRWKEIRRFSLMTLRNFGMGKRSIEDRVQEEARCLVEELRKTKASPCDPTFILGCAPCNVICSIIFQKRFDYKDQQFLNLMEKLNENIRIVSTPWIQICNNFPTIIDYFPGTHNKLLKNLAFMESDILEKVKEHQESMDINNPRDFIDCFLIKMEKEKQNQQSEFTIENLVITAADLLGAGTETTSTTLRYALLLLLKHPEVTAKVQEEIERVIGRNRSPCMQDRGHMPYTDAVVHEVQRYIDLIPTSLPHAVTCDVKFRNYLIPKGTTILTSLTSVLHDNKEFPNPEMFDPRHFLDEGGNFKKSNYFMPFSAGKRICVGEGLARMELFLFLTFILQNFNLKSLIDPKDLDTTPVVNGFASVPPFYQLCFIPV

[6] = Plasma protein binding in dog incubated for 6 hrs by LC-MS/MS analysis; assay type: ADME, cell-free, Canis lupus familiaris; details: read-out: PPB (converted)
[7] = Cmax in Sprague-Dawley rat at 10 mg/kg, IG measured upto 24 hrs by LC-MS analysis; assay type: ADME, organism-based; details: in vivo, po
[8] = Microsomal stability in dog liver microsomes assessed as parent compound remaining pretreated with compound upto 60 mins followed by NADPH addition and measured after 60 mins by LC/MS analysis; assay type: ADME, Canis lupus familiaris, Microsome; details: time < 120 min, read-out: Stability
[9] = Microsomal stability in dog liver microsomes assessed as elimination half life pretreated with compound upto 60 mins followed by NADPH addition and measured after 60 mins by LC/MS analysis; assay type: ADME, Canis lupus familiaris, Microsome; details: time < 120 min; for half-life: liver microsomes, read-out: beta t1/2
[10] = Tmax in ICR mouse at 10 mg/kg, IG measured upto 24 hrs by LC-MS analysis; assay type: ADME, organism-based; details: in vivo, po
[11] = AUC (0 to t) in Sprague-Dawley rat at 1 mg/kg, iv measured upto 24 hrs by LC-MS analysis; assay type: ADME, organism-based; details: in vivo
[12] = biological target: T1, Amine oxidase [flavin-containing] A (Homo sapiens, UniProt P21397); experiment: Inhibition of MAO-A (unknown origin) preincubated with compound for 15 mins followed by substrate addition and measured after 60 mins by luminescence based microplate reader analysis; assay type: toxicity
T1 sequence (P21397 whole entry): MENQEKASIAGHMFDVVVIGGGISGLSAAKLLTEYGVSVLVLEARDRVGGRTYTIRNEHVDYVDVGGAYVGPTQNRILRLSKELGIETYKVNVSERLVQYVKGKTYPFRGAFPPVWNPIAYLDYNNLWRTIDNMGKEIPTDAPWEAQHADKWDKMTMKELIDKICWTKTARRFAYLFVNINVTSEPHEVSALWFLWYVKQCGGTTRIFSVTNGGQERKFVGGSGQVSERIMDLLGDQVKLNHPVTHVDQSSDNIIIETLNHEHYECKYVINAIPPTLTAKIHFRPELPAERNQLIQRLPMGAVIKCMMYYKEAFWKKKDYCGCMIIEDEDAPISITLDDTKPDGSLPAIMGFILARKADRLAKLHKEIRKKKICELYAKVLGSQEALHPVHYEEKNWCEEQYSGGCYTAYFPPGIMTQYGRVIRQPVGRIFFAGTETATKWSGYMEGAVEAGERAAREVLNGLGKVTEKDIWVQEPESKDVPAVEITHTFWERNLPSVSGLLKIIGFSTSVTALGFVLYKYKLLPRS

[13] = Stability in monkey plasma assessed as parent compound remaining at 25 degreeC measured upto 60 mins by HPLC analysis; assay type: ADME, cell-free, Macaca mulatta; details: rhesus monkey; for remaining at 1 h: read-out: Stability
[14] = Half life in ICR mouse at 1 mg/kg, iv measured upto 24 hrs by LC-MS analysis; assay type: ADME, organism-based; details: in vivo
[15] = Stability in rat plasma assessed as parent compound remaining at 25 degreeC measured upto 60 mins by HPLC analysis; assay type: ADME, cell-free; details: for remaining at 1 h: read-out: Stability
[16] = Microsomal stability in dog liver microsomes assessed as intrinsic clearance pretreated with compound upto 60 mins followed by NADPH addition and measured after 60 mins by LC/MS analysis; assay type: ADME, Canis lupus familiaris, Microsome; details: time < 120 min; for microsomal CLint: liver microsomes, read-out: CLH
Staphylococcus aureus [17] = experiment: Antibacterial activity against vancomycin-resistant Staphylococcus aureus assessed as inhibition of bacterial growth; assay type: functional
[18] = Clearance in ICR mouse at 1 mg/kg, iv measured upto 24 hrs by LC-MS analysis; assay type: ADME, organism-based; details: in vivo
[19] = Microsomal stability in rat liver microsomes assessed as parent compound remaining pretreated with compound upto 60 mins followed by NADPH addition and measured after 60 mins by LC/MS analysis; assay type: ADME, Microsome; details: time < 120 min; for remaining at 2 h: liver microsomes, read-out: Stability
[20] = Microsomal stability in monkey liver microsomes assessed as intrinsic clearance pretreated with compound upto 60 mins followed by NADPH addition and measured after 60 mins by LC/MS analysis; assay type: ADME, Macaca mulatta, Microsome; details: rhesus monkey, time < 120 min, read-out: CLH
[21] = Stability in human plasma assessed as parent compound remaining at 25 degreeC measured upto 60 mins by HPLC analysis; assay type: ADME, cell-free; details: for remaining at 1 h: read-out: Stability; for Stability: 1 h
[22] = Microsomal stability in rat liver microsomes assessed as intrinsic clearance pretreated with compound upto 60 mins followed by NADPH addition and measured after 60 mins by LC/MS analysis; assay type: ADME, Microsome; details: time < 120 min, read-out: CLH
[23] = Stability in monkey plasma assessed as parent compound remaining at 37 degreeC measured upto 60 mins by HPLC analysis; assay type: ADME, cell-free, Macaca mulatta; details: rhesus monkey, read-out: Stability
Staphylococcus aureus [24] = experiment: Antibacterial activity against Staphylococcus aureus ATCC29213 assessed as inhibition of bacterial growth incubated for 16 to 20 hrs by CLSI based broth liquid microdilution method; assay type: functional; details: time 16-20 hrs
[25] = Efflux ratio of apparent permeability across […] side in human Caco-2 cells; assay type: ADME, cell-based
[26] = Aqueous solubility of compound at pH 7.4 by LC-MS/MS analysis; assay type: physicochemical; details: buffer
Staphylococcus aureus [27] = experiment: Antibacterial activity against Linezolid-resistant Staphylococcus aureus infected in systemic infection SPF-kunming mouse model assessed as survival rate at 10 mg/kg, IG measured every day for 7 days; assay type: functional, organism-based; details: time 7.0 day
[28] = Apparent permeability across apical to basolateral side in human Caco-2 cells; assay type: ADME, cell-based
[29] = Microsomal stability in human liver microsomes assessed as intrinsic clearance pretreated with compound upto 60 mins followed by NADPH addition and measured after 60 mins by LC/MS analysis; assay type: ADME, Microsome; details: time < 120 min, read-out: CLH
[30] = Microsomal stability in human liver microsomes assessed as elimination half life pretreated with compound upto 60 mins followed by NADPH addition and measured after 60 mins by LC/MS analysis; assay type: ADME, Microsome; details: time < 120 min; for half-life: liver microsomes, read-out: beta t1/2
Staphylococcus aureus [31] = experiment: Antibacterial activity against methicillin-resistant Staphylococcus aureus assessed as inhibition of bacterial growth incubated for 16 to 20 hrs by CLSI based broth liquid microdilution method; assay type: functional; details: time 16-20 hrs
[32] = Stability in simulated gastric acid assessed as compound remaining at pH 1.3 measured at 1.5 hrs; assay type: ADME; details: read-out: Stability
[33] = Stability in simulated gastric acid assessed as compound remaining at pH 1.3 measured at 1 hr; assay type: ADME; details: read-out: Stability
[34] = Stability in simulated gastric acid assessed as compound remaining at pH 1.3 measured immediately; assay type: ADME; details: read-out: Stability
[35] = Stability in simulated gastric acid assessed as compound remaining at pH 1.3 measured at 0.5 hrs; assay type: ADME; details: read-out: Stability

SMILES | Vd [1] [L/kg] | fraction unbound at 6 h [2] | half-life [3] [h] | fraction unbound at 6 h [4] | remaining at 1 h [5] [%] | IC50 (Cytochrome P450 2C19) [µM] | fraction unbound at 6 h [6] | Cmax [7] [ng/mL] | remaining at 2 h [8] [%] | half-life [9] [h] | Tmax [10] [h] | AUC(0-t) at 24 h [11] [ng·h/mL] | remaining at 1 h [13] [%] | half-life [14] [h] | remaining at 1 h [15] [%] | microsomal CLint [16] [µL/min/mg] | clearance [18] [mL/min/kg] | microsomal CLint [20] [µL/min/mg] | microsomal CLint [22] [µL/min/mg] | remaining at 1 h [23] [%] | further results
CC(=O)NC[C@H]1CN(c2ccc(N3CCOCC3)c(F)c2)C(=O)O1 [LINEZOLID] | 0.75 | 0.745 | 10.4 | 0.716 | 99.1 | > 30 | 0.829 | 4830 | 97.8 | 34.6 | 0.25 | 719 | 99.4 | 0.39 | 99.2 | 0.667 | 20.6 | 0.446 | 2.22 | 105 | IC50 [12]: 20 µM; MIC (Staphylococcus aureus [17]): 1 µg/mL (≈ 2.96 µM); remaining at 2 h [19]: 93.9%; remaining at 1 h [21]: 99.4%
O=C1O[C@@H](CO)CN1c1ccc(-c2ccc(/C=N/N3CCOCC3)nc2)c(F)c1 | 0.81 | 0.215 | 10.2 | 0.144 | 107 | > 30 | 0.169 | 2320 | 96.8 | 19.2 | 2 | 1220 | 113 | 2.1 | 116 | 1.51 | 5.9 | 3.25 | 2.3 | 103 | MIC (Staphylococcus aureus [24]): 0.06 µg/mL (≈ 0.15 µM); Ratio [25]: 0.61; solubility [26]: 10.9 µM (≈ 4.36 µg/mL); Activity (Staphylococcus aureus [27]): Active; Papp A→B [28]: 36.7 ×10⁻⁶ cm/s; IC50 [12]: 5.64 µM; microsomal CLint [29]: 12.7 µL/min/mg; half-life [30]: 1.83 h; remaining at 2 h [19]: 93.4%; remaining at 1 h [21]: 102%; MIC (Staphylococcus aureus [31]): 0.125 µg/mL (≈ 0.312 µM)
O=C1O[C@@H](CO)CN1c1ccc(-c2ccc(/C=N/N3CCCCC3)nc2)c(F)c1 | 1.06 | 0.028 | 1.61 | 0.013 | 97.4 | 0.858 | 0.017 | 1380 | 67.4 | 1.78 | 2 | 1400 | 120 | 1.54 |  | 13.1 | 13.9 | 17.2 | 14.5 | 105 | MIC (Staphylococcus aureus [24]): 0.03 µg/mL (≈ 0.0753 µM); Ratio [25]: 1.5; solubility [26]: 9.94 µM (≈ 3.96 µg/mL); Papp A→B [28]: 11.1 ×10⁻⁶ cm/s; microsomal CLint [29]: 11.8 µL/min/mg; Stability ([15]; 1 h): 124%; beta t1/2 ([30]; microsomes, 2 h): 2 h; remaining at 2 h [19]: 63.3%; Stability [21]: 149%; MIC (Staphylococcus aureus [31]): 0.03 µg/mL (≈ 0.0753 µM)
CC(C)N/N=C/c1ccc(-c2ccc(N3C[C@H](CO)OC3=O)cc2F)cn1 | 0.72 | 0.115 |  | 0.074 | 112 | 11 | 0.074 | 2480 | 76.7 | 3.37 | 0.25 | 1580 | 108 | 0.34 | 111 | 8.78 | 34.9 | 13.7 | 12.6 | 106 | beta t1/2 ([3]; microsomes, 1 h): 1.87 h; remaining at 1.5 h [32]: 90.8%; MIC (Staphylococcus aureus [24]): 0.06 µg/mL (≈ 0.161 µM); remaining at 1 h [33]: 94.3%; solubility [26]: 30.2 µM (≈ 11.2 µg/mL); remaining at 0 h [34]: 100%; remaining at 0.5 h [35]: 96.7%; microsomal CLint [29]: 5.78 µL/min/mg; half-life [30]: 4.68 h; Stability ([19]; microsomes, 2 h): 70.2%; remaining at 1 h [21]: 112%; MIC (Staphylococcus aureus [31]): 0.03 µg/mL (≈ 0.0806 µM)
O=C1O[C@@H](CO)CN1c1ccc(-c2ccc(/C=N/N3CCS(=O)(=O)CC3)nc2)c(F)c1 | 0.73 | 0.284 | 12.1 | 0.223 | 113 | > 30 | 0.275 | 597 | 97 |  |  | 1120 |  |  | 113 |  |  | 2.39 | 2.07 | 103 | MIC (Staphylococcus aureus [24]): 0.25 µg/mL (≈ 0.557 µM); solubility [26]: 20 µM (≈ 8.97 µg/mL); beta t1/2 ([9]; microsomes, 2 h): 98.85 h; Stability ([13]; 1 h): 144%; microsomal CLint [29]: 1.51 µL/min/mg; CLH ([16]; microsomes, 2 h): 0.804 µL/min/mg; half-life [30]: 15.3 h; remaining at 2 h [19]: 92.8%; Stability [21]: 126%; MIC (Staphylococcus aureus [31]): 0.25 µg/mL (≈ 0.557 µM)
